Consider 4 compounds from patent US20120059052A1, “PRENYLFLAVONOID FORMULATIONS” (BIOACTIVES, INC., priority 2005, published 2012).

The test system of one data set is endothelial cells. The settings on record: endothelial cells invading collagen gel, capillary-like tubes; cited from earlier work.
Another data set has as its target T1, Cyp1A1 (Homo sapiens, UniProt P04798).
T1 sequence (P04798 1-512): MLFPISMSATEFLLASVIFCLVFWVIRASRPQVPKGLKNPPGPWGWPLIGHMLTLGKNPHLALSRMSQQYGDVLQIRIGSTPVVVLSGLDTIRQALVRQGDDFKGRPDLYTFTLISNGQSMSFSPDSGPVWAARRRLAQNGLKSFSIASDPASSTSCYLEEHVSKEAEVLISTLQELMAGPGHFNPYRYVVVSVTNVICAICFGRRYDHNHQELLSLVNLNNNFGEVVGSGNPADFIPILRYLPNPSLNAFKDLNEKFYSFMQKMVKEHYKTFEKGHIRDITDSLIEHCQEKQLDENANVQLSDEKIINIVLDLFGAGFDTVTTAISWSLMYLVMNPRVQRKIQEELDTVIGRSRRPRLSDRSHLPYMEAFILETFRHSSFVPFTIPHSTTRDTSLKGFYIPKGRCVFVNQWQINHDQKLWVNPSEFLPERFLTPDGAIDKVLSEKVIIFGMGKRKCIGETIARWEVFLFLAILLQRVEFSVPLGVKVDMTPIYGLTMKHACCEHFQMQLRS
The settings on record: cDNA-expressed human enzyme; cited from earlier work.

A further data set addresses T2, Cyp1A2 (Homo sapiens, UniProt P05177).
T2 sequence (P05177 1-516): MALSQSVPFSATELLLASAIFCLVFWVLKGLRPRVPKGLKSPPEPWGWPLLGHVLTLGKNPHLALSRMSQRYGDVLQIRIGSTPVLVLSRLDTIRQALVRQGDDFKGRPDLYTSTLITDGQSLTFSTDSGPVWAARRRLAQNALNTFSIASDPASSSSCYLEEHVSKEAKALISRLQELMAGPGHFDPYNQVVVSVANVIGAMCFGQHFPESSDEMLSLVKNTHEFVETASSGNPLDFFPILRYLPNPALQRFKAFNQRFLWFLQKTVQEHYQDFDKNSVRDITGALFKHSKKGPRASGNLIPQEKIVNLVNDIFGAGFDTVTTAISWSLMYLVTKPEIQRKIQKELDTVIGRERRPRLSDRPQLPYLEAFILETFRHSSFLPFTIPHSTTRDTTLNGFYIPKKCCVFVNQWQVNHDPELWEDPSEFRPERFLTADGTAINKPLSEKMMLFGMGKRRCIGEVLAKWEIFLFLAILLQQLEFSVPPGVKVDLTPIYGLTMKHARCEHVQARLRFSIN
The settings on record: cDNA-expressed human enzyme; cited from earlier work.

A further data set has as its target T3, Cyp1B 1 (Homo sapiens, UniProt Q16678).
T3 sequence (Q16678 1-543): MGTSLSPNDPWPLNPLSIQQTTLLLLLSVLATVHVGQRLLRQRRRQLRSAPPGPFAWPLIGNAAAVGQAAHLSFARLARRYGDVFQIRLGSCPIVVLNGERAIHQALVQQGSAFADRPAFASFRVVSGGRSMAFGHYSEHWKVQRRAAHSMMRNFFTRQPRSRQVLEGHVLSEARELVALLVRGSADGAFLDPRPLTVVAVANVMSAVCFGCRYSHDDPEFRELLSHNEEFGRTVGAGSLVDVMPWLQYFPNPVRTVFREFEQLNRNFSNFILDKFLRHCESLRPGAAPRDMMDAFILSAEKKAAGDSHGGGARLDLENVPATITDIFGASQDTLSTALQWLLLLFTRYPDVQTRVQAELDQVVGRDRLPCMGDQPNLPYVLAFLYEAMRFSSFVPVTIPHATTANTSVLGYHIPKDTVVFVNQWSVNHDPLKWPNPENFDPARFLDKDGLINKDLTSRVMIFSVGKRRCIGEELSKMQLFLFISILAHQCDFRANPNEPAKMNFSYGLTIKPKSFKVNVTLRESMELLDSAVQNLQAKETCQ
To be noted: cDNA-expressed human enzyme; cited from earlier work.

Another data set addresses T4, HMG-CoA reductase (Homo sapiens, UniProt P04035).
T4 construct: from tissue; host or cells: liver microsomes
T4 sequence (P04035 1-888): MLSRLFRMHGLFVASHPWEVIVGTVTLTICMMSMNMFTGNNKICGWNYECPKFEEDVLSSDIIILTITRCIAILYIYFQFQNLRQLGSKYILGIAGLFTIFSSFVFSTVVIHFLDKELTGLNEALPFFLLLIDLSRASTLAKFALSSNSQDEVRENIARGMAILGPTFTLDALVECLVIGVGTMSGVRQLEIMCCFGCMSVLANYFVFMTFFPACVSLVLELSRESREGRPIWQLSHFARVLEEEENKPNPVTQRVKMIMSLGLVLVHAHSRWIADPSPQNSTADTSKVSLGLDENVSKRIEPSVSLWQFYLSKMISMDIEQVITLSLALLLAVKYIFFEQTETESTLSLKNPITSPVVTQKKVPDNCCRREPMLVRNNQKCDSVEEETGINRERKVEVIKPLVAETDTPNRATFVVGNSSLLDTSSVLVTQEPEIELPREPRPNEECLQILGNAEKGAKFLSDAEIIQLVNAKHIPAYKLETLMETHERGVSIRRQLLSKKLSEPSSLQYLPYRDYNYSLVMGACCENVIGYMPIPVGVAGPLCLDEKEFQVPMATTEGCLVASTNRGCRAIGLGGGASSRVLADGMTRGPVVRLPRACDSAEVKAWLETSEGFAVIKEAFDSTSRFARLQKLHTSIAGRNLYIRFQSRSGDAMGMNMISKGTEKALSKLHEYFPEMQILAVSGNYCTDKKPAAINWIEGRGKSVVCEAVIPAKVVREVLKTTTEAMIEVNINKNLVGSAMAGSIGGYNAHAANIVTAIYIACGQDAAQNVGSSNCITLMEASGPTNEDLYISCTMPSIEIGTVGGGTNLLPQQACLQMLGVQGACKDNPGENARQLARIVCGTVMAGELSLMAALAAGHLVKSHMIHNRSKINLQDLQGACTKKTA
Put plainly: HMG-CoA reductase assay in isolated liver microsomes. It is filed as biochemical. As to the method:
HMG-CoA reductase assays were performed in which increasing concentrations of xanthohumol (1 μM to 100 μM) were added to isolated liver microsomes. Xanthohumol had no effect on HMG-CoA reductase activity. As a positive control, atorvastatin (10 nM and 1 μM) was tested in the same assay, which inhibited reductase activity by 58% and 87% respectively. The protocol followed was as published in Telford et al. ATVB 2002; 22: 1884-1891.
Background: Liver microsomes are a subcellular fraction often used to study metabolism.

A further data set relates to HepG2 cells. The data set is described as follows: Incorporation of 14C-acetic acid into cholesterol in HepG2 cells. It is filed as cell-based. The settings on record: Homo sapiens, read-out: Inhibition of acetate incorporation into cholesterol. As to the method: The incorporation of ^14C-acetic acid into cholesterol was examined in HepG2 cells. […] The IC50 was approximately 20 μM. In the same HepG2 cell assay system, atorvastatin (10 nM and 1 μM) inhibited acetate incorporation into cholesterol by 20% and 80% respectively.

The test system of data set [1] is Caco-2 cell monolayers. The data set is described as follows: Caco-2 plate certification with control compounds. The data set is classed as in vitro ADME. To be noted: TW12, passage 63, age 22 days. As to the method:
To test the permeability of xanthohumol across Caco-2 cell monolayers, Caco-2 cell monolayers were grown to confluence on collagen-coated, microporous, polycarbonate membranes in 12-well Costar Transwell® plates. Details of the plates and their certification are shown below in Table 3. The test article was also the aqueous xanthohumol formulation, and the dosing concentration was 2 μM in the assay buffer (HBSSg) as in the previous example. Cell monolayers were dosed on the apical side (A-to-B) or basolateral side (B-to-A) and incubated at 37° C. with 5% CO2 in a humidified incubator. Samples were taken from the donor chamber at 120 minutes, and samples from the receiver chamber were collected at 60 and 120 minutes. Each determination was performed in duplicate. Lucifer yellow permeability was also measured for each monolayer after being subjected to the test article to ensure no damage was inflicted to the cell monolayers during the permeability experiment. All samples were assayed for Xanthohumol by LC/MS/MS using electrospray ionization. The apparent permeability (Papp), and percent recovery were calculated as described above.

Data set [2] has as its system Caco-2 cell monolayers. Put plainly: Permeability across Caco-2 cell monolayers. It is filed as in vitro ADME. The settings on record: all monolayers, after exposure to test article. As to the method:
Percent Recovery=100×((Vr×Cr^final)+(Vd×Cd^final))/(Vd×C0)
• dCr/dt is the slope of the cumulative concentration in the receiver compartment versus time in μMs^−1. • Vr is the volume of the receiver compartment in cm^3. • Vd is the volume of the donor compartment in cm^3. • A is the area of the cell-free insert (1.13 cm^2 for 12-well Transwell). • Cr^final is the cumulative receiver concentration in μM at the end of the incubation period. • Cd^final is the concentration of the donor in μM at the end of the incubation period. • C0 is the initial concentration of the dosing solution in μM.
Each determination was performed in duplicate.
On the technique in general: Caco-2 monolayers are a common model of the intestinal barrier.

As a reminder, the Papp is a coefficient for how fast a substance crosses the barrier. Higher therefore signals ready permeation.

For the compound `CC(C)=CCc1c(O)cc(O)c2c1O[C@H](c1ccc(O)cc1)CC2=O` [8-prenylnaringenin], the “Effect on angiogenesis in vitro” value in the data set on endothelial cells is on record as “inhibits angiogenesis”. Further, the “Inhibition of Cyp1A1” value at Cyp1A1 is recorded as “strongly inhibit”. Also, at Cyp1A2, the “Inhibition of Cyp1A2” value is recorded as “strongly inhibit”. Also, at Cyp1B 1, the “Inhibition of Cyp1B1” value is “strongly inhibit”.

In the case of `CC(C)c1c(C(=O)Nc2ccccc2)c(-c2ccccc2)c(-c2ccc(F)cc2)n1CC[C@@H](O)C[C@@H](O)CC(=O)O` [atorvastatin, reference compound], the figures for the inhibition at 0.01 µM on HMG-CoA reductase (10 nM) and with HepG2 cells (10 nM) were 58% and 20%, respectively. For the same compound, the inhibition at 1 µM on HMG-CoA reductase (1 μM) turned out to be 87%; with HepG2 cells (1 μM), 80%.

Regarding `COc1cc(O)c(CC=C(C)C)c2c1C(=O)CC(c1ccc(O)cc1)O2` (stereo not shown) [isoxanthohumol], the “Inhibition of Cyp1A1” value on Cyp1A1 is listed as “strongly inhibit”. The “Inhibition of Cyp1A2” value at Cyp1A2 is “strongly inhibit”. Moreover, the “Inhibition of Cyp1B1” value on Cyp1B 1 is given as “strongly inhibit”.

With Lucifer Yellow [reference compound], the apparent permeability (Papp) with Caco-2 cell monolayers [1] is 0.13 ×10⁻⁶ cm/s. For the same compound, the “Lucifer yellow Papp, post-experiment integrity control” value in the data set on Caco-2 cell monolayers [2] is less than 0.8 ×10⁻⁶ cm/s.
